# According to US20240173432A1, “Compositions and Methods for Treatment of Myotonic Dystrophy Type 1 with CRISPR/SluCas9” (Vertex Pharmaceuticals Incorporated, priority 2021, published 2024):
# System: CAG foci in primary DM1 patient myoblasts
# Assay: Single-cut screening: CAG foci staining
# Type: cell-based, human
# Details: single sgRNA, DNA-PKi treated
# Method in brief: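 Primary DM1 patient myoblasts were PFA-fixed and hybridized with […] (1 ng/μL, 15 min at 80° C) in 30% formamide/2×SSC, followed by anti-MBNL1 immunostaining and Hoechst counterstain. CAG RNA foci were quantified by high-content confocal imaging after single-cut SuCas9 sgRNA editing.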
row,Substance,% of CAG foci positive nuclei (DNA-PKi) [%]
1,"ATGGGCAAACTGCAGGCCTGGG (listed as DNA, chemistry not fully specified) [SluD14]",3.96
2,"GCCCCGTTGGAAGACTGAGTGC (listed as DNA, chemistry not fully specified) [SluU08]",1.61
3,"gggcTCGAAGGGTCCTTGTAGC (as printed in the source, key not given here) [SluU64]",2.58
4,"ggggcTCGAAGGGTCCTTGTAG (as printed in the source, key not given here) [SluU63]",5.49

# Same assay, conditions: single sgRNA, vehicle
row,Substance,% of CAG foci positive nuclei (Vehicle) [%]
1,"ATGGGCAAACTGCAGGCCTGGG (listed as DNA, chemistry not fully specified) [SluD14]",6.7
2,"GCCCCGTTGGAAGACTGAGTGC (listed as DNA, chemistry not fully specified) [SluU08]",2.21
3,"gggcTCGAAGGGTCCTTGTAGC (as printed in the source, key not given here) [SluU64]",1.23
4,"ggggcTCGAAGGGTCCTTGTAG (as printed in the source, key not given here) [SluU63]",3.29

# System: 3′ UTR of the human DMPK gene
# Assay: Single-cut screening: indel editing efficiency by Sanger sequencing and ICE analysis in primary DM1 patient myoblasts
# Type: cell-based
# Details: single SluCas9 sgRNA RNP in primary DM1 patient myoblasts; Sanger sequencing and ICE analysis; vehicle-treated samples
# Method in brief: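 Indels were estimated by ICE from Sanger chromatograms of PCR amplicons covering the DMPK 3′ UTR wild-type allele, using only vehicle-treated samples; sgRNAs with R2<0.9 are flagged. Samples came from primary DM1 patient myoblasts (2 × 10^5) harvested 72 h after nucleofection with 30 pmol SluCas9 and 90 pmol single sgRNA RNP.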
row,Substance,Indel efficiency [%]
1,"GCCCCGTTGGAAGACTGAGTGC (listed as DNA, chemistry not fully specified) [SluU08]",87
2,"gggcTCGAAGGGTCCTTGTAGC (as printed in the source, key not given here) [SluU64]",59

# Same assay, conditions: single-cut; SluCas9 RNP; vehicle-treated samples; 72 hrs post nucleofection; wild-type allele
row,Substance,indel efficiency (Sanger sequencing and ICE analysis)
1,"ATGGGCAAACTGCAGGCCTGGG (listed as DNA, chemistry not fully specified) [SluD14]",high editing IN4DEL efficiency
2,"GCCCCGTTGGAAGACTGAGTGC (listed as DNA, chemistry not fully specified) [SluU08]",high editing IN4DEL efficiency
3,"gggcTCGAAGGGTCCTTGTAGC (as printed in the source, key not given here) [SluU64]",high editing IN4DEL efficiency
4,"ggggcTCGAAGGGTCCTTGTAG (as printed in the source, key not given here) [SluU63]",high editing IN4DEL efficiency

# System: CUG foci in primary DM1 patient myoblasts
# Assay: Dual-cut screening: FISH staining of CUG RNA foci
# Type: cell-based, human
# Details: sgRNAs working with partner(s) or alone
# Method in brief: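 SluCas9 RNPs (protein:sgRNA 1:3; 20 pmol SluCas9 + 60 pmol sgRNA per guide, paired 1:1) nucleofected into primary DM1 patient myoblasts, then DMSO or 3 μM DNA-PKi Compound 6 for 48 h. At 72 h post-nucleofection cells fixed, FISH-stained with Cy3-PNA(CAG)5 probe plus anti-MBNL1 and Hoechst; % CUG foci-free nuclei by high-content confocal imaging.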
row,Substance,RNA foci reduction efficiency
1,"ATGGGCAAACTGCAGGCCTGGG (listed as DNA, chemistry not fully specified) [SluD14]",exceptionally high RNA foci reduction efficiency
2,"GCCCCGTTGGAAGACTGAGTGC (listed as DNA, chemistry not fully specified) [SluU08]",exceptionally high RNA foci reduction efficiency
3,"gggcTCGAAGGGTCCTTGTAGC (as printed in the source, key not given here) [SluU64]",exceptionally high RNA foci reduction efficiency
4,"ggggcTCGAAGGGTCCTTGTAG (as printed in the source, key not given here) [SluU63]",exceptionally high RNA foci reduction efficiency
